In US11998551B2, “Treatment of mitochondrial diseases” (FUNDACIÓ HOSPITAL UNIVERSITARI VALL D'HEBRON-INSTITUT DE …, priority 2015, dated 2024):

Tested on: quiescent fibroblasts from healthy controls
Test: mtDNA copy number (quantitative PCR) after EtBr-forced depletion in quiescent fibroblasts from healthy controls
Type: cell-based, human
Settings: control cells, 14 days exposure to 5 ng/ml EtBr
Description: Primary cultured fibroblasts were obtained from skin biopsies of patients 1-3 and 4 healthy donors. All subjects gave informed consent in accordance with our Institutional Review Boards and the Declaration of Helsinki.
Cells were seeded in 6-well plates of 9.5 cm^2 in Dulbecco's modified Eagle's medium (DMEM) with 4.5 g/L glucose, supplemented with 2 mM L-glutamine, 100 U/ml penicillin and streptomycin, and 10% dialyzed Fetal Bovine Serum (FBS) (Invitrogen) in a humidified incubator at 37° C. and 5% CO2. After tight confluence was reached, FBS was reduced to 0.1% to induce quiescence and simultaneous treatment with 5 ng/ml of EtBr (ethidium bromide, Merck) was initiated (day 0, t0). Cell media was replaced with the same treatment every 2-3 days for two weeks. At day 14 (t14) EtBr was withdrawn from cell media and the treatment of a set of all cells was initiated with 200 μM of all four deoxynucleosides (dNs): dAdo (deoxyadenosine, Sigma), dCtd (deoxycytidine, Sigma), dGuo (deoxyguanosine, Sigma), dThd (deoxythymidine, Sigma) and 5 μM EHNA (Sigma). A set of cells was left untreated and all parameters were monitored in parallel. Cell media was replaced with the same treatment every 2-3 days for 12 additional days. At days 16 or 17 media were collected and stored at −20° C. until further use. […]
mtDNA copy number was assessed by quantitative PCR as previously described. […]

Structure (SMILES): CC[n+]1c(-c2ccccc2)c2cc(N)ccc2c2ccc(N)cc21 [EtBr, ethidium bromide]
- averaged percentage of mtDNA residual levels ± SE: 39.68±6.6%
